From US12616681B2, “Compositions and methods for treating renal injury” (priority 2019, dated 2026)
One block for each molecule: values may come before it.

Assays:
[1] = system: contrast-induced acute kidney injury (CIAKI) mice; assay: CIAKI mouse model: renal function (serum creatinine, NGAL, KIM-1); format: in vivo, C57/BL6 mice
Experimental: Female mice were injected with 10 gI/kg of Visipaque (iodixanol) via the tail vein. […] For inhibition of the EP4s, mice were treated with 0.2 mg/kg/day of ONO-AE3-208 by subcutaneous injection for 14 days. Serum and kidney tissue were collected 48 h after the iodixanol injection.
Renal function was assessed by determining the serum levels of creatinine (Arbor Assays, Ann Arbor, MI, USA), NGAL (R&D Systems), and KIM-1 (R&D Systems) at 48 h after the iodixanol injection.

[2] = system: mice with ischemic AKI (bilateral renal IRI); assay: Renal IRI (ischemic AKI) mouse model: renal function markers; format: in vivo, C57/BL6 mice
Experimental: Briefly, mice were anesthetized with isoflurane using a vaporizer, and bilateral renal arteries were clamped for 30 min (2, 49). After the ischemic time, clamps were released to induce blood reperfusion. […] Serum and kidney tissue were collected 24 h after renal IRI. […] After reperfusion for 24 h, kidney tissues (˜20 mg) were homogenized in cold PBS containing indomethacin (10 μg/mL) and then centrifuged for 10 min at 12,000 rpm. Protein concentrations of supernatant were determined by BCA assay (ThermoFisher Scientific, Rockford, IL). The PGE2 level was measured using a PGE2 ELISA kit (R&D Systems, Minneapolis, MN) in triplicate. PGE2 levels were expressed as nanograms of PGE2 per milligram of protein. Renal function was assessed by determining the serum levels of blood urea nitrogen (BUN; Abcam), serum creatinine (Agilent 6410 LC-MS/MS, Agilent, Santa Clara, CA), lipocalin-2 (R&D Systems), and kidney injury molecule-1 (KIM-1; R&D Systems) after reperfusion for 24 h. Measurement of serum creatinine was by HPLC. Serum creatinine was assessed using an Agilent 6410 LC-MS/MS system coupled with an Agilent 1200 series HPLC system (Agilent). […] The mixture was centrifuged at 13,000 rpm for 10 min after vigorous vortex, and 1 μL of supernatant was then injected into the LC-MS/MS system. The chromatography separation was performed on a Hypersil GOLD C18 column (150×2.1 mm, 3 m, Thermo Scientific) using a mobile phase of 0.1% formic acid solution and acetonitrile [70:30 (vol/vol)]. The flow rate was 0.2 mL/min. Electrospray ionization was performed in the positive ion mode. The capillary voltage was set at 4,000 V. Nitrogen as the nebulizing gas was set at 15 psi, and the drying gas temperature was set at 300° C., with a flow rate of 6 L/min. The multiple-reaction monitoring mode using specific precursor/production transition was used for quantification. […] The peak areas for all analytes were integrated automatically using Agilent Mass Hunter Analysis software (version B.01.04).

[3] = system: contrast-induced acute kidney injury (CIAKI) mice; assay: CIAKI mouse model: renal blood flow (laser Doppler flux); format: in vivo, C57/BL6 mice
Experimental: Total RBF was assessed by measuring renal Doppler flux using noninvasive laser Doppler flowmetry (PeriFlux System 5000, Perimed AB, Sweden). Laser Doppler probes were placed on the kidney surface to measure the renal flux. The flux was measured 48 h after CM administration. The relative increase represented the percentage increase in renal blood flow from baseline to peak for each test. Statistical significance was set as p<0.05.

[4] = system: human renal proximal tubular epithelial cells (hRPTECs); assay: hRPTEC apoptosis by flow cytometry with iodixanol; format: cell-based
Experimental: Human renal proximal tubular epithelial cells (hRPTECs) were purchased from the American Type Culture Collection (#PCS-400-010TM, Manassas, VA, USA). These cells were grown in 75 cm^2 flasks in Renal Epithelial Cell Basal Medium (PCS-400-030TM, ATCCVR) supplemented with Renal Epithelial Cell Growth Kit (PCS-400-040TM, ATCCVR).
After the treatment described in the section above, the hRPTECs were pelleted by centrifugation at 1800 rpm for 10 min and incubated with annexin V fluorescein isothiocyanate and propidium iodide using an Apoptosis Detection Kit I (#556547, BD Biosciences, San Jose, CA, USA) according to the manufacture's instruction. Then quantification was conducted using a FACSC flow cytometer with Cell Quest software (BD Biosciences).

[5] = system: human renal proximal tubular epithelial cells (hRPTECs); assay: hRPTEC cell viability (MTT assay) with iodixanol; format: cell-based; conditions: iodixanol 50 mgI/mL, 24 h; PGE1 100 ng/mL, PGE2 100 nM vs CM vehicle; CM vs normal control
[6] = system: contrast-induced acute kidney injury (CIAKI) mice; assay: CIAKI mouse model: necrotic and apoptotic cell death, gross findings; format: in vivo, C57/BL6 mice; conditions: 48 h after CM
Experimental: Kidneys were harvested at 48 h after the CM injection, fixed in 4% phosphate-buffered formalin, and embedded in paraffin. To evaluate necrosis, […] paraffin sections were stained with hematoxylin and eosin. Tubular injury was scored semi-quantitatively according to a system by a pathologist who examined at least 20 separate fields (400× magnification) in the outer medulla, which is the zone most sensitive to ischemic injury. The scoring system was as follows: 0, no damage; 1, patchy isolated unicellular necrosis; 2, tubular necrosis <25%; 3, tubular necrosis 25-50%; and 4, tubular necrosis >50%. At least 20 consecutive high-power fields per section were scored by two operators blind to the details of the experiment. To analyze the frequency of apoptosis, […] paraffin sections were subjected to terminal deoxynucleotidyl transferase-mediated dUTP nick-end labeling (TUNEL) assay (Millipore, Temecula, CA, USA) according to the manufacturer's protocol. Four […] paraffin sections were incubated with the TUNEL reaction mixture at 37° C. for 1 h, followed by incubation with a horseradish peroxidase-conjugated detection antibody. The signals were visualized using diaminobenzidine (Sigma-Aldrich). After counterstaining with Mayer's hematoxylin, TUNEL-positive cells were counted in at least five separate fields (640× magnification) in the outer medulla, and the apoptosis index (%, number of apoptosis cells/total number of cells) was calculated using GENASIS software.

[7] = system: contrast-induced acute kidney injury (CIAKI) mice; assay: CIAKI mouse model: AMP and adenosine levels in renal tissue; format: in vivo, C57/BL6 mice; conditions: 48 h after CM
Experimental: 48 h after CM administration, serum and kidney tissues were harvested. The adenosine levels in the serum and kidney tissues were measured using high-performance liquid chromatography.

[8] = rapidly degraded by 15-PGDH; cited from earlier work
[9] = system: mice; assay: Induction of CIAKI by intravenous contrast media in mice; format: in vivo, C57/BL6 mice; conditions: 10 gI/kg iv
Experimental: The two different […] in terms of viscosity and osmolality were administered intravenously to 5 mice for each group. Ten grams of iodine per body weight (gI/kg) of each CM was injected by a 26-gauge syringe through the tail vein. The blood samples for the analysis of functional assessment of kidney injury such as Cr, NGAL, and KIM-1 were taken at 48 h after administration (FIGS. 10(A, B)).

[10] = system: mice with ischemic AKI (bilateral renal IRI); assay: Renal IRI model: PGE2 (EP1-EP4) and adenosine A2A receptor expression; format: in vivo, C57/BL6 mice; conditions: 24 h post-IRI
Experimental: PGE2 receptors (EP1, EP2, EP3, and EP4) and adenosineA2A receptor mRNA levels were deter-mined by real-time PCR. Their protein levels were determined by Western blot assay and immunofluorescence analysis.

[11] = system: mice with ischemic AKI (bilateral renal IRI); assay: Renal IRI model: cAMP, AMP and adenosine levels; format: in vivo, C57/BL6 mice; conditions: 24 h post-IRI, vs sham mice
Experimental: After reperfusion for 24 h, kidney tissues were harvested, homogenized in 10 volumes of 0.1 M HCl, and centrifuged for 10 min at 12,000 rpm. cAMP levels in kidney tissues and serum were measured using a cAMP Complete ELISA kit (Enzo Life Science, Farmingdale, NY). AMP and adenosine in kidney tissue were assessed by Agilent 6410 LC-MS/MS. Serum adenosine was measured using an assay kit (Abnova, Walnut, CA).

[12] = system: mice with ischemic AKI (bilateral renal IRI); assay: Renal IRI model: renal vasodilation and renal Doppler flux (RBF); format: in vivo, C57/BL6 mice; conditions: 24 h following IRI
Experimental: The inner arteriolar area of the outer medulla was determined using α-smooth muscle actin (α-SMA)-stained sections. Kidneys were removed without perfusion under inhalational isoflurane anesthesia, divided into three pieces horizontally, immediately fixed in 10% formalin, and then embedded in paraffin. The inner area of α-SMA-positive vessels in the outer medulla was measured using ImageJ. The results are expressed as average areas of renal arteries in the outer medulla. As a surrogate for RBF, we used noninvasive laser Doppler flowmetry (periflux system 5000, Perimed) to measure flux, placing laser-Doppler probes at a fixed position on the kidney surface and recording renal cortical measurements. […] The relative increase represents the percent increase in RDF from baseline to peak for each test.

[13] = system: mice with ischemic AKI (bilateral renal IRI); assay: Renal IRI model: proinflammatory cytokines and HMGB1; format: in vivo, C57/BL6 mice; conditions: 24 h after renal IRI, vs IRI-vehicle mice
Experimental: Inflammatory cytokine mRNA and protein levels were measured by real-time PCR and ELISA. Kidney tissue and serum were harvested after reperfusion for 24 h. Total RNA was extracted from frozen kidney tissue using TRIzol reagent (ThermoFisher Scientific) according to the manufacturer's protocol. RNA was converted to cDNA using oligo-dT primers. IL-17, TNF-α, and IL-1b mRNA levels were determined by real-time PCR. Serum IL-17 (R&D Systems), TNF-α (R&D Systems), and IL-10 (R&D Systems) were measured using commercial ELISA kits according to the manufacturer's instructions.

[14] = system: mice with ischemic AKI (bilateral renal IRI); assay: Renal IRI model: necrotic and apoptotic cell death, gross pathology; format: in vivo, C57/BL6 mice; conditions: 24 h after renal IRI; 5 mg/kg ip three times
Text: To evaluate necrosis, 5-μm-thick paraffin sections were stained with hematoxylin and eosin. Tubular injury of individual slides was scored semi-quantitatively according to a scoring system by a pathologist in a blinded manner. The scoring system was as follows: 0, no damage; 1, patchy isolated unicellular necrosis; 2, tubular necrosis <25%; 3, tubular necrosis 25-50%; and 4, tubular necrosis >50%. To analyze the frequency of apo ptosis, 5-μm-thick paraffin sections were subjected to a TUNEL assay (Millipore, Temecula, CA) according to the manufacturer's protocol. TUNEL-positive cells were counted in at least five separate fields (64 magnification) in the outer medulla, and the apoptosis index (in %, number of apoptosis cells/total number of cells) was calculated using GENASIS software.

[15] = iodixanol 10 gI/kg + vehicle, 48 h after CM

Structure (SMILES): CC(C(=O)Nc1cc(C#N)ccc1CCCC(=O)O)c1ccc(F)c2ccccc12 (stereo not drawn) [ONO-AE3-208]
serum creatinine, absence or presence of ONO-AE3-208 ([1]; CIAKI mice (FIG. 15E), SW033291 line = CM + SW033291, ONO-AE3-208 line = CM + ONO-AE3-208 + SW033291): 1.51 ± 0.31 mg/dL
serum NGAL, absence or presence of ONO-AE3-208 ([1]; CIAKI mice (FIG. 15F), SW033291 line = CM + SW033291, ONO-AE3-208 line = CM + ONO-AE3-208 + SW033291): 229.85 ± 27.12 ng/mL
serum KIM-1, absence or presence of ONO-AE3-208 ([1]; CIAKI mice (FIG. 15G), SW033291 line = CM + SW033291, ONO-AE3-208 line = CM + ONO-AE3-208 + SW033291): 0.85 ± 0.26 ng/mL
beneficial effects of SW033291 on BUN, serum creatinine, serum Kim-1 and RDF-inferred RBF ([2]; ONO-AE3-208 10 mg/kg co-administered with the three-dose schedule of SW033291 in IRI mice): substantially blocked
increase in RBF by SW033291 treatment ([3]; ONO-AE3-208 with SW033291 (FIG. 15H)): blocked the increase

Structure (SMILES): CCCCC[C@H](O)/C=C/[C@H]1[C@H](O)CC(=O)[C@@H]1CCCCCCC(=O)O [PGE1, prostaglandin E1]
serum creatinine, effect in words ([1]; CIAKI mice, 48 h after CM): decreased
apoptotic rate vs CM vehicle group, in words ([4]; PGE1 100 ng/mL with iodixanol 50 mgI/mL): no differences
preservation of RBF from CM-induced reduction, in words ([3]; 48 h after CM): did not
cell viability (MTT), in words [5]: did not show any difference
TUNEL-positive cell proportions vs CIAKI mice, in words [6]: significantly lower
renal injury score, effect in words [6]: No reduction
vascular congestion in the outer medullary region (gross findings) [6]: prominent vascular congestion

Structure (SMILES): CCCCC[C@H](O)/C=C/[C@H]1[C@H](O)CC(=O)[C@@H]1C/C=C\CCCC(=O)O [PGE2, prostaglandin E2]
AMP level compared to CIAKI mice, in words [7]: increased
adenosine level compared to CIAKI mice, in words [7]: increased
apoptosis rate of hRPTECs ([4]; drug with iodixanol 50 mgI/mL, 24 h): 19.43±1.38%
estimated half-life [8]: less than 15 s
RBF (renal Doppler flux) ([3]; CM + drug, 48 h after CM): 541.4±22.65
cell viability (MTT), in words [5]: did not show any difference
TUNEL-positive cell proportions vs CIAKI mice, in words [6]: significantly lower
vascular congestion in the outer medullary region (gross findings) [6]: less-congested
microscopic renal injury score ([6]; CM + drug, score 0-4): 1.55±0.14

Cr vs normal control ([9]; 48 h after administration): elevation
KIM-1 vs normal control ([9]; 48 h after administration): elevation
NGAL vs normal control ([9]; 48 h after administration): elevation
Structure (SMILES): CC(=O)N(CC(O)CN(C(C)=O)c1c(I)c(C(=O)NCC(O)CO)c(I)c(C(=O)NCC(O)CO)c1I)c1c(I)c(C(=O)NCC(O)CO)c(I)c(C(=O)NCC(O)CO)c1I (stereo not drawn) [Visipaque, iodixanol]
serum KIM-1 in CM-treated mice [1, 15]: 1.41 ± 0.41 ng/mL
serum NGAL in CM-treated mice [1, 15]: 299.71 ± 38.64 ng/mL
serum creatinine in CM-treated mice [1, 15]: 1.94 ± 0.24 mg/dL
increase of apoptosis rate of hRPTECs in the CM group compared to the normal group ([4]; iodixanol 50 mgI/mL, 24 h): more than 2.5 times
necrosis and apoptosis (Renal injury score and TUNEL assay) vs normal control ([9]; 48 h): significantly higher
cell viability (MTT), in words [5]: significantly lower

EP1 receptor mRNA levels [10]: increased
EP4 receptor mRNA levels [10]: reduced
Structure (SMILES): COc1ccc2c(c1)c(CC(=O)O)c(C)n2C(=O)c1ccc(Cl)cc1 [indomethacin, reference compound]
levels of EP2 receptors [10]: no effect
levels of EP3 receptors [10]: no effect
renal cAMP [11]: reduced
RDF-inferred RBF [12]: reduced
BUN (serum) ([2]; 24 h after renal IRI, vs IRI-vehicle mice, dosing before and after IRI): increase
HMGB1 levels in kidney tissue [13]: increased
tissue congestion in the outer medulla (gross pathology) [14]: worsened
